Source: PMC8097242, “Galectin-4 N-Terminal Domain: Binding Preferences Toward A and B Antigens With Different Peripheral Core Presentations” (Frontiers in Chemistry, 2021)

How the values were obtained:
Type in all cases: binding
[1] = biological target: T1, N-terminal CRD of hGalectin-4 (Gal-4N) (Homo sapiens, UniProt P56470); assay: 1H-15N HSQC NMR-based titrations (chemical shift perturbation) of 15N-labeled Gal-4N; details: for Kd: HSQC NMR-based titration, 50 μM 15N-labeled lectin, 298 K, read-out: KD (μM) (NMR)
T1 construct: N-terminal CRD of hGalectin-4 (amino acids 1–150, including an additional C-terminus His-Tag); His-Tag (C, cleaved yes); made in house; host or cells: E. coli BL21 (pET29b)
T1 sequence (P56470 1-150): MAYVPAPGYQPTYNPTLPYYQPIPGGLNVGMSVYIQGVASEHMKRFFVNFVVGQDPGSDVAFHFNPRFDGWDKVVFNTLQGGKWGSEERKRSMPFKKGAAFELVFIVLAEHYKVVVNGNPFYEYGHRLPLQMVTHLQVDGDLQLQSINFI
Protocol: The molecular recognition event was also analyzed from the perspective of the lectin. Thus, a chemical shift perturbation (CSP) analysis of the changes produced in the ^1H-^15N HSQC spectra recorded for ^15N-labeled Gal-4N upon addition of the different ligands was carried out. This analysis required the NH backbone NMR assignment of the lectin signals, following well-established triple resonance 3D NMR methods (see Materials and methods and Supplementary Information). The assignment protocol allowed assigning 80% of the NH backbone resonances. In addition to the ligands shown in Scheme 1, the corresponding non-fucosylated analogs and the H antigens (devoid of the terminal Gal/GalNAc moieties, see Supplementary Information), as well as lactose, were also employed. Thus, a full comparative analysis on the monosaccharide-specific effects on the lectin CSP was achieved.
The total volume for the NMR samples was 500/μl. The lectin was in phosphate-buffered saline (50 mM sodium phosphate, 150 mM NaCl, pH 7.4), either in D2O or 90:10 H2O:D2O depending on the NMR experiment. The pH was adjusted with the required amount of NaOH and HCl or NaOD and DCl.
experiments were acquired using an 800 MHz Bruker spectrometer with a cryoprobe (Bruker, Billerica, MA, United States). The samples were prepared using 50 μM of the ^15N-labeled lectin in the corresponding buffer in a 90:10 H2O:D2O ratio. The experiments were performed at 298 K. Six to nine points were recorded for each ligand and CSP and KD were calculated using CcpNmr Analysis 2.4.2.

[2] = biological target: T1, N-terminal CRD of hGalectin-4 (Gal-4N); assay: 1H Saturation Transfer Difference (STD) NMR epitope mapping
Protocol: ^1H-saturation transfer difference NMR spectra were acquired for mixtures of Gal-4N (50 μM) with a 50-fold excess of ligand. Protein aromatic irradiation afforded the best STD intensities and thus these are discussed henceforth. The STD NMR spectra were very similar among the different ligands with respect to both the observed glycan protons and their intensities. […] Severe proton overlapping precluded a full comparison among ligands, but key isolated ^1H NMR resonance signals permitted to highlight evident differences.
All the STD NMR experiments were performed using an 800 MHz Bruker spectrometer with a cryoprobe (Bruker, Billerica, MA, United States). The samples were prepared in the corresponding deuterated buffer. The temperature was 288 K for every experiment. An amount of 50 μM of the lectin with 50 equivalents of the ligand was employed for every experiment except for lactose, for which a 1:70 ratio was used. The STD spectra were acquired with 1,024 scans, 2 s of saturation time using a train of 50 ms Gaussian-shaped pulses, and 3 s of relaxation delay. The spin-lock filter applied to remove the signals of the lectin was set at 40 ms. The on-resonance frequency was set for the aromatic region at 6.58 ppm, while the off-resonance frequency was set at 100 ppm.
Supplementary Table S1. Relative STD-AF (Amplification factor) and STD percentage of each non overlapping proton of each ligand.

[3] = biological target: T1, N-terminal CRD of hGalectin-4 (Gal-4N); assay: Isothermal titration calorimetry (ITC); details: for Kd: PBS pH 7.4, single binding site model
Protocol: Isothermal titration calorimetry experiments were performed using the MicroCal PEAQ-ITC calorimeter (Malvern Panalytical, Malvern, United Kingdom). Samples containing 100–200 μM of Gal-4N in PBS (50 mM sodium phosphate, pH 7.4, 300 mM NaCl) were titrated with stocks of 3–10 mM in PBS of glycans 4, 5, 7, 8, 9, and 11. During the automated experiment, small aliquots (2–3 μL) of the sugar stocks were added to the cell containing the lectin. Curve fitting to a single binding site model was performed with the MicroCal Origin 7 software.
Isothermal titratrion calorimetry (ITC). Isothermal Titration Calorimetry experiments were performed using MicroCal PEAQ-ITC calorimeter. Samples containing 100-200 µM of Gal-4N in PBS (50 mM sodium phosphate pH 7.4, 300 mM NaCl) were titrated with stocks of 3-10 mM in PBS of glycans A type 1, A type 2, A type 6, B type 1, B type 2 and B type 6. During the automated experiment, small aliquots (2-3 µL) of the sugar stocks were added to the cell containing the lectin. The association constants and the thermodynamic profile of the binding was calculated from the fitting of the titration data to a single binding site model.

Kd [1] [µM] | STD% ([2]; 1H-residue H1 Fuc) [%] | STD-AF ([2]; 1H-residue H1 Fuc) | STD% ([2]; 1H-residue H1Galα) [%] | STD-AF ([2]; 1H-residue H1Galα) | STD% ([2]; 1H-residue H1Galβ) [%] | STD-AF ([2]; 1H-residue H1Galβ) | STD% ([2]; 1H-residue H3Galβ) [%] | STD-AF ([2]; 1H-residue H3Galβ) | STD% ([2]; 1H-residue H4Galβ) [%] | STD-AF ([2]; 1H-residue H4Galβ) | STD% ([2]; 1H-residue H5Galβ) [%] | STD-AF ([2]; 1H-residue H5Galβ) | STD% ([2]; 1H-residue MetFuc) [%] | STD-AF ([2]; 1H-residue MetFuc) | -TΔS (kcal mol^–1) (ITC) [3] | ΔG (kcal mol^–1) (ITC) [3] | ΔH (kcal mol^–1) (ITC) [3] | Kd [3] [µM] | SMILES | further results
190 | 16 | 0.0024 | 73 | 0.0108 | 59 | 0.0088 | 36 | 0.0054 | 55 | 0.0081 | 100 | 0.0148 | 16 | 0.0023 | 3.8 | −5.5 | −9.3 | 88 | CC(=O)NC1C(O)OC(CO)C(OC2OC(CO)C(O)C(OC3OC(CO)C(O)C(O)C3O)C2OC2OC(C)C(O)C(O)C2O)C1O (stereo not shown) [B type-2 (tetra)] | STD% ([2]; 1H-residue H1GlcNAc): 24%; STD-AF ([2]; 1H-residue H1GlcNAc): 0.0035; STD% ([2]; 1H-residue H3GlcNAc): 36%; STD-AF ([2]; 1H-residue H3GlcNAc): 0.0054; STD% ([2]; 1H-residue H4Galα): 18%; STD-AF ([2]; 1H-residue H4Galα): 0.0027; STD-AF ([2]; 1H-residue NHAcGlcNAc (B type 1: first of two lines)): 0.0035
60 | 28 | 0.0105 | 74 | 0.0276 | 80 | 0.0298 | 29 | 0.0108 | 82 | 0.0307 | 100 | 0.0374 | 20 | 0.0074 | 6.4 | −5.9 | −12.3 | 51 | CC1OC(OC2C(OC3C(CO)OC(O)C(O)C3O)OC(CO)C(O)C2OC2OC(CO)C(O)C(O)C2O)C(O)C(O)C1O (stereo not shown) [B type-6 (tetra)] | fold range of NMR-based binding affinities, best vs worse binder ([1]; B-type 6 vs A-type 4): 20 fold; STD% ([2]; 1H-residue H2Galα): 38%; STD-AF ([2]; 1H-residue H2Galα): 0.0142; STD% ([2]; 1H-residue H2Galβ): 34%; STD-AF ([2]; 1H-residue H2Galβ): 0.0129; STD% ([2]; 1H-residue H2Glca / H2Glcα): 39%; STD-AF ([2]; 1H-residue H2Glca / H2Glcα): 0.0146; STD% ([2]; 1H-residue H2Glcb / H2Glcβ): 36%; STD-AF ([2]; 1H-residue H2Glcb / H2Glcβ): 0.0135; STD% ([2]; 1H-residue H3Glcb / H3Glcβ): 46%; STD-AF ([2]; 1H-residue H3Glcb / H3Glcβ): 0.0172; STD% ([2]; 1H-residue H5Glcβ): 44%; STD-AF ([2]; 1H-residue H5Glcβ): 0.0163; binding enthalpy [3]: -12.3 kcal/mol; increased affinity of type-6 vs corresponding type-2 antigen ([3]; Glc vs GlcNAc at reducing end, β1–4 linked): two-fold; fold difference in affinity of the best binder ([3]; among tetrasaccharides of Figure 6 (ITC)): 5 fold
